# Results reported in paper PMC10794144, “A novel antibiotic class targeting the lipopolysaccharide transporter” (Nature, 2024).
# Read-outs that look alike come from different tables or passages of the source.
# Tested on: A. baumannii
# Assay: microbe, parasite or virus in culture
# Settings: Acinetobacter baumannii, 100%
# Summary of the method: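 Standard broth microdilution per CLSI; diluted 0.5 McFarland inocula in cation-adjusted Mueller-Hinton broth; visual or OD600 endpoint.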
compound,measurement,setting,value
"C[C@@H](O)[C@H]1C(=O)N2C(C(=O)O)=C(S[C@@H]3CN[C@H](C(=O)N(C)C)C3)[C@H](C)[C@H]12 [meropenem, reference compound]",MIC,"read-out: MIC 100%, ROB08701, Study LGC284200",32 µg/mL
same,MIC,"read-out: MIC 100%, ROB08701, Study LGC284879",1 µg/mL
same,MIC,"read-out: MIC 100%, ROB08701, Study LGC285582",1 µg/mL
same,MIC,"read-out: MIC 100%, ROB08701, Study LGC286210",1 µg/mL
same,MIC,"read-out: MIC 100%, ROB08701, Study LGC293598",2 µg/mL
same,MIC,"read-out: MIC 100%, ROB08701, Study LGC294355",1 µg/mL
same,MIC,"read-out: MIC 100%, ROB08701, Study LGC295147",1 µg/mL
same,MIC,"read-out: MIC 100%, ROB08701, Study LGC296813",2 µg/mL
same,MIC,"read-out: MIC 100%, ROB08701, Study LGC299544",1 µg/mL
same,MIC,"read-out: MIC 100%, ROB08701, Study LGC301026",1 µg/mL
same,MIC,"read-out: MIC 100%, ROB08701, Study LGC308175",1 µg/mL
same,MIC,"read-out: MIC 100%, ROB08701, Study ROC003",1 µg/mL
same,MIC,"read-out: MIC 100%, ROB08701, Study ROC004",1 µg/mL
same,MIC,"read-out: MIC 100%, ROB08701, Study ROC005",1 µg/mL
same,MIC,"read-out: MIC 100%, ROB08701, Study ROC006",1 µg/mL
same,MIC,"read-out: MIC 100%, ROB08701, Study ROC007",1 µg/mL
same,MIC,"read-out: MIC 100%, ROB08701, Study ROC008",1 µg/mL
same,MIC,"read-out: MIC 100%, ROB08701, Study ROC009",1 µg/mL
same,MIC,"read-out: MIC 100%, ROB08701, Study ROC010",1 µg/mL
same,MIC,"read-out: MIC 100%, ROB08701, Study ROC012",0.5 µg/mL
same,MIC,"read-out: MIC 100%, ROB08701, Study ROC013",1 µg/mL
same,MIC,"read-out: MIC 100%, ROB08702, Study LGC277937",32 µg/mL
same,MIC,"read-out: MIC 100%, ROB08702, Study LGC279800",32 µg/mL
same,MIC,"read-out: MIC 100%, ROB08702, Study LGC281440",16 µg/mL
same,MIC,"read-out: MIC 100%, ROB08702, Study LGC282160",64 µg/mL
same,MIC,"read-out: MIC 100%, ROB08702, Study LGC282623",32 µg/mL
same,MIC,"read-out: MIC 100%, ROB08702, Study LGC283932",32 µg/mL
same,MIC,"read-out: MIC 100%, ROB08702, Study LGC284200",32 µg/mL
same,MIC,"read-out: MIC 100%, ROB08702, Study LGC284879",8 µg/mL
same,MIC,"read-out: MIC 100%, ROB08702, Study LGC285582",32 µg/mL
same,MIC,"read-out: MIC 100%, ROB08702, Study LGC286210",32 µg/mL
same,MIC,"read-out: MIC 100%, ROB08702, Study LGC293598",32 µg/mL
same,MIC,"read-out: MIC 100%, ROB08702, Study LGC294355",16 µg/mL
same,MIC,"read-out: MIC 100%, ROB08702, Study LGC295147",16 µg/mL
same,MIC,"read-out: MIC 100%, ROB08702, Study LGC296813",16 µg/mL
same,MIC,"read-out: MIC 100%, ROB08702, Study LGC299544",32 µg/mL
same,MIC,"read-out: MIC 100%, ROB08702, Study LGC301026",16 µg/mL
same,MIC,"read-out: MIC 100%, ROB08702, Study LGC308175",32 µg/mL
same,MIC,"read-out: MIC 100%, ROB08702, Study ROC003",16 µg/mL
same,MIC,"read-out: MIC 100%, ROB08702, Study ROC004",32 µg/mL
same,MIC,"read-out: MIC 100%, ROB08702, Study ROC005",32 µg/mL
same,MIC,"read-out: MIC 100%, ROB08702, Study ROC006",64 µg/mL
same,MIC,"read-out: MIC 100%, ROB08702, Study ROC007",32 µg/mL
same,MIC,"read-out: MIC 100%, ROB08702, Study ROC008",16 µg/mL
same,MIC,"read-out: MIC 100%, ROB08702, Study ROC009",16 µg/mL
same,MIC,"read-out: MIC 100%, ROB08702, Study ROC010",32 µg/mL
same,MIC,"read-out: MIC 100%, ROB08702, Study ROC012",32 µg/mL
same,MIC,"read-out: MIC 100%, ROB08702, Study ROC013",32 µg/mL
same,MIC,"read-out: MIC 100%, ROB08703, Study LGC277937",64 µg/mL
same,MIC,"read-out: MIC 100%, ROB08703, Study LGC279800",> 64 µg/mL
same,MIC,"read-out: MIC 100%, ROB08703, Study LGC281440",64 µg/mL
same,MIC,"read-out: MIC 100%, ROB08703, Study LGC282160",64 µg/mL
same,MIC,"read-out: MIC 100%, ROB08703, Study LGC282623",64 µg/mL
same,MIC,"read-out: MIC 100%, ROB08703, Study LGC283932",> 64 µg/mL
same,MIC,"read-out: MIC 100%, ROB08703, Study LGC284200",64 µg/mL
same,MIC,"read-out: MIC 100%, ROB08703, Study LGC284879",> 64 µg/mL
same,MIC,"read-out: MIC 100%, ROB08703, Study LGC285582",> 64 µg/mL
same,MIC,"read-out: MIC 100%, ROB08703, Study LGC286210",64 µg/mL
same,MIC,"read-out: MIC 100%, ROB08703, Study LGC293598",> 64 µg/mL
same,MIC,"read-out: MIC 100%, ROB08703, Study LGC294355",64 µg/mL
same,MIC,"read-out: MIC 100%, ROB08703, Study LGC295147",64 µg/mL
same,MIC,"read-out: MIC 100%, ROB08703, Study LGC296813",64 µg/mL
same,MIC,"read-out: MIC 100%, ROB08703, Study LGC299544",> 64 µg/mL
same,MIC,"read-out: MIC 100%, ROB08703, Study LGC301026",64 µg/mL
same,MIC,"read-out: MIC 100%, ROB08703, Study LGC308175",64 µg/mL
same,MIC,"read-out: MIC 100%, ROB08703, Study ROC003",64 µg/mL
same,MIC,"read-out: MIC 100%, ROB08703, Study ROC004",64 µg/mL
same,MIC,"read-out: MIC 100%, ROB08703, Study ROC005",> 64 µg/mL
same,MIC,"read-out: MIC 100%, ROB08703, Study ROC006",64 µg/mL
same,MIC,"read-out: MIC 100%, ROB08703, Study ROC007",> 64 µg/mL
same,MIC,"read-out: MIC 100%, ROB08703, Study ROC008",64 µg/mL
same,MIC,"read-out: MIC 100%, ROB08703, Study ROC009",64 µg/mL
same,MIC,"read-out: MIC 100%, ROB08703, Study ROC010",64 µg/mL
same,MIC,"read-out: MIC 100%, ROB08703, Study ROC012",64 µg/mL
same,MIC,"read-out: MIC 100%, ROB08703, Study ROC013",> 64 µg/mL
same,MIC,"read-out: MIC 100%, ROB08704, Study LGC277937",64 µg/mL
same,MIC,"read-out: MIC 100%, ROB08704, Study LGC279800",64 µg/mL
same,MIC,"read-out: MIC 100%, ROB08704, Study LGC281440",32 µg/mL
same,MIC,"read-out: MIC 100%, ROB08704, Study LGC282160",32 µg/mL
same,MIC,"read-out: MIC 100%, ROB08704, Study LGC282623",64 µg/mL
same,MIC,"read-out: MIC 100%, ROB08704, Study LGC283932",32 µg/mL
same,MIC,"read-out: MIC 100%, ROB08704, Study LGC284200",32 µg/mL
same,MIC,"read-out: MIC 100%, ROB08704, Study LGC284879",64 µg/mL
same,MIC,"read-out: MIC 100%, ROB08704, Study LGC285582",32 µg/mL
same,MIC,"read-out: MIC 100%, ROB08704, Study LGC286210",64 µg/mL
same,MIC,"read-out: MIC 100%, ROB08704, Study LGC293598",32 µg/mL
